The record followed here is patent US20210115040A1, “OGA INHIBITOR COMPOUNDS” (Janssen Pharmaceutica NV, priority 2018, published 2021).

In this assay the target is T1, OGA (Mus musculus, UniProt Q9EQQ9).
T1 construct: from tissue; host or cells: mouse brain (sagittal sections, forebrain area)
T1 sequence (Q9EQQ9 1-916): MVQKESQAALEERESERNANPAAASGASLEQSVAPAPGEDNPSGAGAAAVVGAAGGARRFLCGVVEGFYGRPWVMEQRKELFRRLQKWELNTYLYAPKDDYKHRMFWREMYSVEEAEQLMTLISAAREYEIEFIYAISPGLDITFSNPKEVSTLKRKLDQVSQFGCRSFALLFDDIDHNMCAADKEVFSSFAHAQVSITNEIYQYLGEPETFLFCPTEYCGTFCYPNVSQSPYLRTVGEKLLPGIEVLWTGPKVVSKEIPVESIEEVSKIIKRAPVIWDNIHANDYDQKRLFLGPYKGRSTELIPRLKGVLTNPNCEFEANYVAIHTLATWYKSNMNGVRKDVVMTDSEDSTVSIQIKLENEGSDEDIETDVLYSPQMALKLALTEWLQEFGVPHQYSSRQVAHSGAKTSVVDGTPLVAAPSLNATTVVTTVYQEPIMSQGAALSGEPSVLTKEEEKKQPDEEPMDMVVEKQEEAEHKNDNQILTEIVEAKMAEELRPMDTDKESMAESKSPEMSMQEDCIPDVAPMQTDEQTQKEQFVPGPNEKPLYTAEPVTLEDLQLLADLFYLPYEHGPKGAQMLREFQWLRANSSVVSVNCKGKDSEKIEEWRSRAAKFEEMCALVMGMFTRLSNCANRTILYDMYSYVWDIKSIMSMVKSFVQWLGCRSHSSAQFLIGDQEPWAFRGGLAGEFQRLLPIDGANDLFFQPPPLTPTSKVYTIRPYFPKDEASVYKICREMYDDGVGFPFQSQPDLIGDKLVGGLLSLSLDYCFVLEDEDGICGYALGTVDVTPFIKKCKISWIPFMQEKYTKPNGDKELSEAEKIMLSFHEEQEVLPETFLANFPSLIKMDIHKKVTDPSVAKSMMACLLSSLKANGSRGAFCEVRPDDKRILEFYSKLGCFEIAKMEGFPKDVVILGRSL
The experiment in a line: Ex vivo OGA occupancy assay using [3H]-ligand (brain sections, autoradiography). Format: in vivo. The following applies: po, Male NMRI or C57Bl6j mice, p.o., 24 h after administration, forebrain area, normalised to vehicle, read-out: Occupancy (% +/- sd). The protocol:
Male NMRI or C57Bl6j mice were treated by oral (p.o.) administration of vehicle or compound. Animals were sacrificed 24 hours after administration. Brains were immediately removed from the skull, hemispheres were separated and the right hemisphere, for ex vivo OGA occupancy assay, was rapidly frozen in dry-ice cooled 2-methylbutane (−40° C.). Twenty […]m-thick sagittal sections were cut using a Leica CM 3050 cryostat-microtome (Leica, Belgium), thaw-mounted on microscope slides (SuperFrost Plus Slides, Thermo Fisher Scientific) and stored at −20° C. until use. After thawing, sections were dried under a cold stream of air. The sections were not washed prior to incubation. The 10 minutes incubation with 3 nM [^3H]-ligand was rigorously controlled. All brain sections (from compound-treated and vehicle-treated animals) were incubated in parallel. After incubation, the excess of [^3H]-ligand was washed off in ice-cold buffer (PBS 1× and 1% BSA) 2 times 10 minutes, followed by a quick dip in distilled water. The sections were then dried under a stream of cold air.
Radioactivity in the forebrain area of brain slices was measured using a β-imager with M3 vision analysis software (Biospace Lab, Paris). Specific binding was calculated as the difference between total binding and non-specific binding measured in Thiamet-G (10 μM) treated sections. […]

Turning to `Cc1cc(C2CCCN(C(C)c3ccc4sc(C)nc4n3)C2)cc(C)n1` (racemic) [Compound 39], the receptor occupancy at 25 mg/kg was 3.33%.
